From patent US20230321055A1, “PREVENTIVE TREATMENT OF MIGRAINE” (priority 2022, published 2023)

Tested on: participants with chronic migraine
Test: Same phase 3 study: patient-reported outcomes (MSQ v2.1, AIM-D, HIT-6, WPAI, PGI-C, treatment satisfaction, EQ-5D-5L)
Format: in vivo, human
Details: for Change from Baseline in HIT-6 total score at Week 12, LS Mean / Change from Baseline in HIT-6 total score at Week 12, LSMD Atogepant vs. Placebo / Change from Baseline in MSQ v2.1 Role Function - Restrictive Domain Score at Week 12, LS Mean / Change from Baseline in MSQ v2.1 Role Function - Restrictive Domain Score at Week 12, LSMD Atogepant vs. Placebo: Off-Treatment Hypothetical Estimand population
From the text: The MSQ v2.1 is a 14-item questionnaire designed to measure health-related quality of life impairments attributed to migraine in the past 4 weeks. It is divided into three domains: Role Function Restrictive assesses how migraines limit one's daily social and work-related activities; Role Function Preventive assesses how migraines prevent these activities; and the Emotional Function domain assesses the emotions associated with migraine. Participants respond to items using a 6-point scale ranging from “none of the time” to “all of the time.” Raw dimension scores are computed as a sum of item responses and rescaled to a 0 to 100 scale, where higher scores indicate better quality of life.
The AIM-D (Activity Impairment in Migraine — Diary) is an 11-function daily diary measure that assesses the impact of migraine. It is comprised of two domains that evaluate performance of daily activities (PDA: 7 items) and physical impairment (PI: 4 items). […] The AIM-D was developed as an electronic daily diary with the same set of questions administered in headache and non-headache versions. Raw domain scores are rescaled to a 0 to 100 scale, where higher scores indicate greater impact of migraine.
The HIT-6 (Headache Impact Test) is a 6-question assessment used to measure the impact headaches have on a participant's ability to function on the job, at school, at home, and in social situations. It assesses the effect that headaches have on normal daily life and the participant's ability to function. Responses are based on frequency using a 5-point scale ranging from “never” to “always.” The HIT-6 total score, which ranges from 36 to 78, is the sum of the responses—each of which is assigned a score ranging from 6 points (never) to 13 points (always)—with higher scores indicating larger impact due to headache. Yang et al., “Validation of the Headache Impact Test (HIT-6™) across episodic and chronic migraine”, Cephalalgia, 2011 February; 31(3): 357−367.
Secondary endpoints included change from baseline in mean monthly headache days across the 12 week treatment period; change from baseline in mean monthly acute medication use days across the 12-week treatment period; at least a 50% reduction in mean monthly migraine days across the 12-week treatment period; change from baseline in MSQ v2.1 Role Function-Restrictive domain score at week 12; change from baseline in mean AIM-D monthly functioning and activity impairment score across the 12-week treatment period; and change from baseline in HIT-6 total score at week 12.
FIG. 8 and Table 5 show the change from baseline in AIM-D Performance of Daily Activities at Weeks 1-4, 5-8, and 9-12 and across 12 weeks. FIG. 9 and Table 6 show change from baseline in WPAI Overall Work Productivity Loss at Weeks 1-4, 5-8, and 9-12. […] A graphical approach with weighted Bonferroni test procedure was used to control the overall type I error rate at the 2-sided α=0.05 level for key secondary endpoint comparisons between each atogepant dose vs placebo. For exploratory endpoints, nominal P values were provided without adjusting for multiplicity.
Patient-reported outcome (PRO) measures included the Performance of Daily Activities (PDA) and Physical Impairment (PI) domains of the Activity Impairment in Migraine-Diary (AIM-D), and the 5-level European Quality of Life-5 Dimension (EQ-5D-5L) descriptive system and visual analogue scale (VAS), implemented via daily diary. Scores in each domain were transformed to a 0-100 scale with higher scores indicating a greater burden from migraine. Changes in PDA and PI scores and the proportion of participants achieving clinically meaningful within-patient change in the PDA domain (≥12.5 points) and PI domain (≥10 points) were compared between participants who received atogepant vs placebo. EQ-5D-5L measures 5 dimensions of QOL, including mobility, self-care, usual activities, pain/discomfort, and anxiety/depression. […]

[1] = 30 mg BID, week 12, mITT, listed as atogepant
[2] = 60 mg QD, week 12, mITT, listed as atogepant
[3] = 60 mg, within the first 2 weeks
[4] = both doses (30 mg BID, 60 mg QD), all time points

`C[C@@H]1[C@H](c2c(F)ccc(F)c2F)C[C@H](NC(=O)c2cnc3c(c2)C[C@@]2(C3)C(=O)Nc3ncccc32)C(=O)N1CC(F)(F)F` [Atogepant, (S)—N—((3S,5S,6R)-6-methyl-2-oxo-1-(2,2,2-trifluoroethyl)-5-(2,3,6-trifluorophenyl)piperidin-3-yl)-2′-oxo-1′,2′,5,7-tetrahydrospiro[cyclopenta[b]pyridine-6,3′-pyrrolo[2,3-b]pyridine]-3-carboxamide] was tested, and the “Change from Baseline in HIT-6 total score at Week 12, LS Mean” value (30 mg BID) was −8.47, the “Change from Baseline in HIT-6 total score at Week 12, LSMD Atogepant vs. Placebo” value (30 mg BID) was −3.30 and the “Change from Baseline in MSQ v2.1 Role Function - Restrictive Domain Score at Week 12, LS Mean” value (30 mg BID) was 24.74. The “Change from Baseline in MSQ v2.1 Role Function - Restrictive Domain Score at Week 12, LSMD Atogepant vs. Placebo” value (30 mg BID) was 7.43, the “Change from Baseline in WPAI Overall Work Productivity Loss, LSMD vs placebo” value (30 mg BID, Week 4) was −12.69 and the “Change from Baseline in WPAI Overall Work Productivity Loss, LSMD vs placebo” value (30 mg BID, Week 8) was −8.61. The “Change from Baseline in AIM-D Performance of Daily Activities, LSMD vs placebo” value (from here on “Change … of Daily Activities, LSMD vs placebo”) (30 mg BID, Weeks 1-4) was −5.44, the “Change … of Daily Activities, LSMD vs placebo” value (30 mg BID, Weeks 5-8) was −4.75 and the “Change … of Daily Activities, LSMD vs placebo” value (30 mg BID, Weeks 9-12) was −4.36. For the same compound, the “Change from baseline in MSQ v2.1 role function restrictive domain score at week 12, LS Mean” value (30 mg BID, mITT) was 25.15, the “Change from baseline in MSQ v2.1 role function restrictive domain score at week 12, LSMD Atogepant vs. Placebo” value (30 mg BID, mITT) was 7.96 and the “Change from baseline in mean monthly performance of daily activities domain score of the AIM-D across the 12-week treatment period, LS Mean” value (30 mg BID, mITT) was −14.29. For the same compound, the “Change from baseline in mean monthly performance of daily activities domain score of the AIM-D across the 12-week treatment period, LSMD Atogepant vs. Placebo” value (30 mg BID, mITT) was −4.85, the “Change from baseline in mean monthly physical impairment domain score of the AIM-D across the 12-week treatment period, LS Mean” value (30 mg BID, mITT) was −12.11 and the “Change from baseline in mean monthly physical impairment domain score of the AIM-D across the 12-week treatment period, LSMD Atogepant vs. Placebo” value (30 mg BID, mITT) was −4.19. The “Change from Baseline in WPAI Overall Work Productivity Loss, LSMD vs placebo” value (30 mg BID, week 12) was −7.94, the “MSQ v2.1 Emotional Function domain score change from baseline, LSMD vs placebo” value (30 mg BID, week 12) was 6.36 and the “MSQ v2.1 Role Function-Preventive domain score change from baseline, LSMD vs placebo” value (30 mg BID, week 12) was 8.10. The PGI-C responders (30 mg BID, week 12, mITT) was 153/239, the “PGI-C responders (much better or very much better), Percentage” value (from here on “PGI-C responders … Percentage”) (30 mg BID, week 12, mITT) was 64.0% and the “PGI-C responders, OR (95% CI) vs placebo” value (30 mg BID, week 12, mITT) was 3.36 (2.29, 4.94). For the same compound, the “Satisfaction with study medication (satisfied or extremely satisfied), Percentage” value (from here on “Satisfaction with study medication … Percentage”) (30 mg BID, week 12, mITT) was 64.6%, the “Satisfaction with study medication responders” value (30 mg BID, week 12, mITT) was 148/229 and the “Satisfaction with study medication, OR (95% CI) vs placebo” value (30 mg BID, week 12, mITT) was 2.67 (1.82, 3.91). For the same compound, the “PGI-C responders … Percentage” value [1] was 64.0%, the “Satisfaction with study medication … Percentage” value [1] was 64.6% and the “Change from Baseline in HIT-6 total score at Week 12, LS Mean” value (60 mg QD) was −7.83. For the same compound, the “Change from Baseline in HIT-6 total score at Week 12, LSMD Atogepant vs. Placebo” value (60 mg QD) was −2.66, the “Change from Baseline in MSQ v2.1 Role Function - Restrictive Domain Score at Week 12, LS Mean” value (60 mg QD) was 23.09 and the “Change from Baseline in MSQ v2.1 Role Function - Restrictive Domain Score at Week 12, LSMD Atogepant vs. Placebo” value (60 mg QD) was 5.78. For the same compound, the “Change from Baseline in WPAI Overall Work Productivity Loss, LSMD vs placebo” value (60 mg QD, Week 4) was −15.26, the “Change from Baseline in WPAI Overall Work Productivity Loss, LSMD vs placebo” value (60 mg QD, Week 8) was −11.33 and the “Change … of Daily Activities, LSMD vs placebo” value (60 mg QD, Weeks 1-4) was −4.44. The “Change … of Daily Activities, LSMD vs placebo” value (60 mg QD, Weeks 5-8) was −3.59, the “Change … of Daily Activities, LSMD vs placebo” value (60 mg QD, Weeks 9-12) was −2.11 and the “Change from baseline in MSQ v2.1 role function restrictive domain score at week 12, LS Mean” value (60 mg QD, mITT) was 23.33. The “Change from baseline in MSQ v2.1 role function restrictive domain score at week 12, LSMD Atogepant vs. Placebo” value (60 mg QD, mITT) was 6.15, the “Change from baseline in mean monthly performance of daily activities domain score of the AIM-D across the 12-week treatment period, LS Mean” value (60 mg QD, mITT) was −12.82 and the “Change from baseline in mean monthly performance of daily activities domain score of the AIM-D across the 12-week treatment period, LSMD Atogepant vs. Placebo” value (60 mg QD, mITT) was −3.38. For the same compound, the “Change from baseline in mean monthly physical impairment domain score of the AIM-D across the 12-week treatment period, LS Mean” value (60 mg QD, mITT) was −10.63, the “Change from baseline in mean monthly physical impairment domain score of the AIM-D across the 12-week treatment period, LSMD Atogepant vs. Placebo” value (60 mg QD, mITT) was −2.71 and the “participants achieving clinically relevant reduction with AIM-D PDA of ≥12.5” value (60 mg QD, week 1) was 42.9%. For the same compound, the “participants achieving clinically relevant reduction with AIM-D PI of ≥10” value (60 mg QD, week 1) was 43.7%, the “AIM-D PDA change from baseline, LSMD vs placebo” value (60 mg QD, week 1, mITT) was −5.83 and the “AIM-D PI change from baseline, LSMD vs placebo” value (60 mg QD, week 1, mITT) was −4.12. The “Change from Baseline in WPAI Overall Work Productivity Loss, LSMD vs placebo” value (60 mg QD, week 12) was −9.64, the “MSQ v2.1 Emotional Function domain score change from baseline, LSMD vs placebo” value (60 mg QD, week 12) was 6.81 and the “MSQ v2.1 Role Function-Preventive domain score change from baseline, LSMD vs placebo” value (60 mg QD, week 12) was 6.86. The PGI-C responders (60 mg QD, week 12, mITT) was 130/246, the “PGI-C responders … Percentage” value (60 mg QD, week 12, mITT) was 52.8% and the “PGI-C responders, OR (95% CI) vs placebo” value (60 mg QD, week 12, mITT) was 2.16 (1.48, 3.15). For the same compound, the “Satisfaction with study medication … Percentage” value (60 mg QD, week 12, mITT) was 59.2%, the “Satisfaction with study medication responders” value (60 mg QD, week 12, mITT) was 138/233 and the “Satisfaction with study medication, OR (95% CI) vs placebo” value (60 mg QD, week 12, mITT) was 2.16 (1.49, 3.15). For the same compound, the “PGI-C responders … Percentage” value [2] was 52.8%, the “Satisfaction with study medication … Percentage” value [2] was 59.2% and the “EQ-5D-5L VAS score, LSMD vs placebo” value [3] was 4.47. The “mean EQ-5D-5L descriptive system score, LSMD vs placebo” value [3] was 0.04, the “proportion meeting HIT-6 responder criteria (score reduction ≥5 points) vs placebo” value (all time points and doses, nominal P<0.001) was “nominally significantly greater” and the “WPAI activity impairment vs. placebo” value [4] was “Nominally significant improvements”. For the same compound, the “WPAI presenteeism vs. placebo” value [4] was “Nominally significant improvements”, the “WPAI absenteeism vs. placebo” value (both doses (30 mg BID, 60 mg QD), weeks 4 and 12) was “Nominally significant improvements” and the “HIT-6 scores vs placebo” value (both doses, weeks 4 and 8, nominal P<0.001) was “nominally significant improvements”.
